According to ChEMBL document CHEMBL1124402, “Potent angiotensin II antagonists with non-beta-branched amino acids in position 5” (1989):
Blank lines part the entries; values can stand above or below the compound they belong to. Numbered stars: 1 amine (or outer) side, 2 acyl side, 3 side chain; on linkers, the order of the positions; unused ones are H or OH. Square brackets hold non-standard residues; d marks the D form. Peptide text beside a SMILES is read from it. X1 = CC(c1ccccc1)[C@H](N[*:1])C(=O)[*:2]; Thz(5,5-Me2) = CC1(C)SCN[C@@H]1C(=O)O; dThz(5,5-Me2) = CC1(C)SCN[C@H]1C(=O)O; Gly(cPent) = N[C@H](C(=O)O)C1CCCC1; hPhe = N[C@@H](CCc1ccccc1)C(=O)O; Chg = N[C@H](C(=O)O)C1CCCCC1; Pen = CC(C)(S)[C@H](N)C(=O)O; Nle = CCCC[C@H](N)C(=O)O; Abu = CC[C@H](N)C(=O)O; Sar = CNCC(=O)O

Columns and labels:
[1] = species: Oryctolagus cuniculus; experiment: In vitro antagonist activity was measured in rabbit aorta assay as pA2
[2] = tested on: Rattus norvegicus; experiment: In vivo angiotensin II like activity determined in rat blood pressure assay measured as increase in BP by 1 ug iv of compound; assay type: functional
[3] = tested on: Rattus norvegicus; experiment: In vivo antagonistic activity was measured in the rat blood pressure assay; assay type: functional
[4] = tested on: Rattus norvegicus; experiment: In vivo residual angiotensin II like activity in an rat blood pressure assay; assay type: functional; design: concentration or dose not given beside the values
[5] = species: Oryctolagus cuniculus; experiment: In vitro antagonist activity of compound towards angiotensin II like was measured in rabbit aorta assay; assay type: functional
[6] = tested on: Rattus norvegicus; experiment: (§1) In vivo angiotensin II like activity expressed in rat blood pressure assay measured as increase in BP by 1 ug bolus intravenous injection of compound; assay type: functional
[7] = species: Oryctolagus cuniculus; experiment: pA2 value was evaluated in rabbit aorta assay; assay type: functional
[8] = tested on: Rattus norvegicus; experiment: In vivo residual angiotensin II like activity in rat blood pressure assay; assay type: functional
[9] = molecular target: Type-1 angiotensin II receptor (Oryctolagus cuniculus) (UniProt P34976); experiment: In vitro antagonist activity of compound towards angiotensin II like was measured in rabbit aorta assay; conditions: target entry is the homologue from another species
Sequence of Type-1 angiotensin II receptor (Oryctolagus cuniculus) (P34976 whole entry, looked up): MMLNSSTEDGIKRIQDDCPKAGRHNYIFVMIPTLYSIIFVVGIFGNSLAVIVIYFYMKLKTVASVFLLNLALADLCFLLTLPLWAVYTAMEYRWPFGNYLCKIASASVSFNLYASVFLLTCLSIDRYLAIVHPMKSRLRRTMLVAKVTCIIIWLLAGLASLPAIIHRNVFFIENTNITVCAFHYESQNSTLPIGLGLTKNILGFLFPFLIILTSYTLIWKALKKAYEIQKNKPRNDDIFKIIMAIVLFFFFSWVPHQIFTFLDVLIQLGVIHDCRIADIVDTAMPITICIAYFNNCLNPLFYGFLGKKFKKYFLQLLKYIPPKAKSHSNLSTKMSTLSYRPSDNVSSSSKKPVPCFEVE

[10] = molecular target: Type-1 angiotensin II receptor (Oryctolagus cuniculus) (UniProt P34976); experiment: In vitro antagonist activity of compound towards angiotensin II like was measured in a rabbit aorta assay; conditions: target entry is the homologue from another species
[11] = molecular target: T1, Type-2 angiotensin II receptor (Rattus norvegicus) (UniProt P35351); experiment: as §1; assay type: functional, organism-based
T1 sequence (whole entry): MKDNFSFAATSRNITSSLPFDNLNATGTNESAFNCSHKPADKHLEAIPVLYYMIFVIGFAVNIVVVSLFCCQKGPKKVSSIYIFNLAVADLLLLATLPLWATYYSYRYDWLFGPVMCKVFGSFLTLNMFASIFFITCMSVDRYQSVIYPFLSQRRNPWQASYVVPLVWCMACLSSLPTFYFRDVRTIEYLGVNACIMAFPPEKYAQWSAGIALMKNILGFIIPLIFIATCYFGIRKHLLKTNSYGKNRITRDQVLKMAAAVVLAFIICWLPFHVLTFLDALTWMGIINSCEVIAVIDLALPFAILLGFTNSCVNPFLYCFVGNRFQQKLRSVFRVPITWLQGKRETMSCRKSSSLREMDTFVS

[12] = tested on: Rattus norvegicus; experiment: In vivo inhibitory activity against Residual angiotensin II in the rat blood pressure; assay type: functional

Compound: CC[C@H](C)[C@H](NC(=O)[C@@H]1CCCN1C(=O)[C@H](Cc1c[nH]cn1)NC(=O)[C@@H](NC(=O)[C@H](Cc1ccc(O)cc1)NC(=O)[C@@H](NC(=O)[C@H](CCCN=C(N)N)NC(=O)CNC)C(C)C)C(C)c1ccccc1)C(=O)O (some centres not stated) (H-[Sar]RVY[X1]HPI-OH)
pA2 [1]: 9.3 | BP [2]: 10 mmHg | ID50 [3]: 7.5 ng min-1 rat-1

Compound: H-NRVYAHPF-OH
Activity [4]: 3%

Compound: CC[C@H](NC(=O)[C@H](Cc1ccc(O)cc1)NC(=O)[C@@H](NC(=O)[C@H](CCCN=C(N)N)NC(=O)[C@@H](N)CC(N)=O)C(C)C)C(=O)N[C@@H](Cc1c[nH]cn1)C(=O)N1CCC[C@H]1C(=O)N[C@@H](Cc1ccccc1)C(=O)O (H-NRVY[Abu]HPF-OH)
Activity [4]: 16%

Compound: CC(C)[C@H](NC(=O)[C@H](CCCN=C(N)N)NC(=O)[C@@H](N)CC(N)=O)C(=O)N[C@@H](Cc1ccc(O)cc1)C(=O)N[C@H](C(=O)N[C@@H](Cc1c[nH]cn1)C(=O)N1CCC[C@H]1C(=O)N[C@@H](Cc1ccccc1)C(=O)O)C1CCCCC1 (H-NRVY[Chg]HPF-OH)
Activity [4]: 114%

Compound: CC[C@H](C)[C@H](NC(=O)[C@@H]1CCCN1C(=O)[C@H](Cc1c[nH]cn1)NC(=O)[C@H](NC(=O)[C@H](Cc1ccc(O)cc1)NC(=O)[C@@H](NC(=O)[C@H](CCCN=C(N)N)NC(=O)CNC)C(C)C)c1ccccc1)C(=O)O
pA2 [1]: 9 | BP [2]: 8.5 mmHg | ID50 [3]: 5.5 ng min-1 rat-1

Compound: CC[C@H](C)[C@H](NC(=O)[C@@H]1CCCN1C(=O)[C@H](Cc1c[nH]cn1)NC(=O)[C@H](Cc1c[nH]c2ccccc12)NC(=O)[C@H](Cc1ccc(O)cc1)NC(=O)[C@@H](NC(=O)[C@H](CCCN=C(N)N)NC(=O)CNC)C(C)C)C(=O)O
pA2 [1]: 7.25 | BP [2]: 7.5 mmHg | ID50 [3]: 50 ng min-1 rat-1

Compound: H-NRVYLHPF-OH
Activity [4]: 25%

Compound: CC[C@H](C)[C@H](NC(=O)[C@@H]1CCCN1C(=O)[C@H](Cc1c[nH]cn1)NC(=O)[C@H](CCc1ccccc1)NC(=O)[C@H](Cc1ccc(O)cc1)NC(=O)[C@@H](NC(=O)[C@H](CCCN=C(N)N)NC(=O)CNC)C(C)C)C(=O)O (H-[Sar]RVY[hPhe]HPI-OH)
pA2 [1]: 7.75 | BP [2]: 10 mmHg | ID50 [3]: 20 ng min-1 rat-1

Compound: H-NRVYRHPF-OH
Activity [4]: 0%

Compound: CC[C@H](C)[C@H](NC(=O)[C@@H]1CCCN1C(=O)[C@H](Cc1c[nH]cn1)NC(=O)[C@@H]1CCCN1C(=O)[C@H](Cc1ccc(O)cc1)NC(=O)[C@@H](NC(=O)[C@H](CCCN=C(N)N)NC(=O)CNC)C(C)C)C(=O)O (H-[Sar]RVYPHPI-OH)
pA2 [5]: 8.7 | BP [6]: 7 mmHg

Compound: CNCC(=O)N[C@@H](CCCN=C(N)N)C(=O)N[C@H](C(=O)N[C@@H](Cc1ccc(O)cc1)C(=O)N[C@H](C(=O)N[C@@H](Cc1c[nH]cn1)C(=O)N1CCC[C@H]1C(=O)N[C@@H](Cc1ccccc1)C(=O)O)C(C)(C)SC)C(C)C (H-[Sar]RVY[Pen](Me)HPF-OH)
BP [2]: 60 mmHg

Compound: CC[C@H](C)[C@H](NC(=O)[C@@H]1CCCN1C(=O)[C@H](Cc1c[nH]cn1)NC(=O)[C@@H](NC(=O)[C@H](Cc1ccc(O)cc1)NC(=O)[C@@H](NC(=O)[C@H](CCCN=C(N)N)NC(=O)CNC)C(C)C)[C@@H](C)OC)C(=O)O (H-[Sar]RVYT(Me)HPI-OH)
pA2 [7]: 9.7 | BP [6]: 7.5 mmHg

Compound: H-NRVYVHPF-OH [ANGIOTENSIN AMIDE]
Activity [8]: 100%

Compound: CCCC[C@H](NC(=O)[C@H](Cc1ccc(O)cc1)NC(=O)[C@@H](NC(=O)[C@H](CCCN=C(N)N)NC(=O)[C@@H](N)CC(N)=O)C(C)C)C(=O)N[C@@H](Cc1c[nH]cn1)C(=O)N1CCC[C@H]1C(=O)N[C@@H](Cc1ccccc1)C(=O)O (H-NRVY[Nle]HPF-OH)
Activity [4]: 21%

Compound: CC[C@H](C)[C@H](NC(=O)[C@@H]1CCCN1C(=O)[C@H](Cc1c[nH]cn1)NC(=O)[C@H](CCCN=C(N)N)NC(=O)[C@H](Cc1ccc(O)cc1)NC(=O)[C@@H](NC(=O)[C@H](CCCN=C(N)N)NC(=O)CNC)C(C)C)C(=O)O (H-[Sar]RVYRHPI-OH)
pA2 [1]: 9 | BP [2]: 10 mmHg | ID50 [3]: 15 ng min-1 rat-1

pA2 [9]: 8.7
Compound: CC[C@H](C)[C@H](NC(=O)[C@@H]1CCCN1C(=O)[C@H](Cc1c[nH]cn1)NC(=O)[C@H](CCCCN)NC(=O)[C@H](Cc1ccc(O)cc1)NC(=O)[C@@H](NC(=O)[C@H](CCCN=C(N)N)NC(=O)CNC)C(C)C)C(=O)O (H-[Sar]RVYKHPI-OH)
ID50 [3]: 50 ng min-1 rat-1 | BP [6]: 10 mmHg

Compound: H-NRVYYHPF-OH
Activity [4]: 0%

pA2 [9]: 9
Compound: CC[C@H](C)[C@H](NC(=O)[C@@H]1CCCN1C(=O)[C@H](Cc1c[nH]cn1)NC(=O)[C@H]1N(C(=O)[C@H](Cc2ccc(O)cc2)NC(=O)[C@@H](NC(=O)[C@H](CCCN=C(N)N)NC(=O)CNC)C(C)C)CSC1(C)C)C(=O)O (H-[Sar]RVY[Thz(5,5-Me2)]HPI-OH)
ID50 [3]: 25 ng min-1 rat-1 | BP [6]: 11.4 mmHg

pA2 [10]: 7.5
Compound: CC[C@H](C)[C@H](NC(=O)[C@@H]1CCCN1C(=O)[C@H](Cc1c[nH]cn1)NC(=O)[C@H](C)NC(=O)[C@H](Cc1ccc(O)cc1)NC(=O)[C@@H](NC(=O)[C@H](CCCN=C(N)N)NC(=O)CNC)C(C)C)C(=O)O (H-[Sar]RVYAHPI-OH)
ID50 [3]: 50 ng min-1 rat-1 | BP [6]: 5 mmHg

Compound: H-NRVYPHPF-OH
Activity [8]: 10%

Compound: CC[C@H](C)[C@H](NC(=O)[C@@H]1CCCN1C(=O)[C@H](Cc1c[nH]cn1)NC(=O)[C@H](Cc1c[nH]cn1)NC(=O)[C@H](Cc1ccc(O)cc1)NC(=O)[C@@H](NC(=O)[C@H](CCCN=C(N)N)NC(=O)CNC)C(C)C)C(=O)O
pA2 [1]: 9 | BP [2]: 10 mmHg | ID50 [3]: 5 ng min-1 rat-1

Compound: CC[C@H](C)[C@H](NC(=O)[C@@H]1CCCN1C(=O)[C@H](Cc1c[nH]cn1)NC(=O)[C@@H](NC(=O)[C@H](Cc1ccc(O)cc1)NC(=O)[C@@H](NC(=O)[C@H](CCCN=C(N)N)NC(=O)CNC)C(C)C)[C@@H](C)CC)C(=O)O
BP [11]: 10.2 mmHg | pA2 [5]: 9.1 | ID50 [12]: 10 ng min-1 rat-1

Compound: CC[C@H](C)[C@H](NC(=O)[C@@H]1CCCN1C(=O)[C@H](Cc1c[nH]cn1)NC(=O)[C@H](Cc1ccc(O)cc1)NC(=O)[C@H](Cc1ccc(O)cc1)NC(=O)[C@@H](NC(=O)[C@H](CCCN=C(N)N)NC(=O)CNC)C(C)C)C(=O)O
pA2 [1]: 9.6 | BP [2]: 2.5 mmHg | ID50 [3]: 50 ng min-1 rat-1

pA2 [9]: 8.85
Compound: CCCC[C@H](NC(=O)[C@H](Cc1ccc(O)cc1)NC(=O)[C@@H](NC(=O)[C@H](CCCN=C(N)N)NC(=O)CNC)C(C)C)C(=O)N[C@@H](Cc1c[nH]cn1)C(=O)N1CCC[C@H]1C(=O)N[C@H](C(=O)O)[C@@H](C)CC (H-[Sar]RVY[Nle]HPI-OH)
ID50 [3]: 20 ng min-1 rat-1 | BP [6]: 20 mmHg

Compound: CC(C)[C@H](NC(=O)[C@H](CCCN=C(N)N)NC(=O)[C@@H](N)CC(N)=O)C(=O)N[C@@H](Cc1ccc(O)cc1)C(=O)N[C@H](C(=O)N[C@@H](Cc1c[nH]cn1)C(=O)N1CCC[C@H]1C(=O)N[C@@H](Cc1ccccc1)C(=O)O)C1CCCC1 (H-NRVY[Gly(cPent)]HPF-OH)
Activity [4]: 89%

Compound: CC[C@H](C)[C@H](NC(=O)[C@@H]1CCCN1C(=O)[C@H](Cc1c[nH]cn1)NC(=O)[C@H](Cc1ccccc1)NC(=O)[C@H](Cc1ccc(O)cc1)NC(=O)[C@@H](NC(=O)[C@H](CCCN=C(N)N)NC(=O)CNC)C(C)C)C(=O)O (H-[Sar]RVYFHPI-OH)
pA2 [1]: 9.15 | BP [2]: 7.5 mmHg | ID50 [3]: 100 ng min-1 rat-1

Compound: CO[C@H](C)[C@H](NC(=O)[C@H](Cc1ccc(O)cc1)NC(=O)[C@@H](NC(=O)[C@H](CCCN=C(N)N)NC(=O)[C@@H](N)CC(N)=O)C(C)C)C(=O)N[C@@H](Cc1c[nH]cn1)C(=O)N1CCC[C@H]1C(=O)N[C@@H](Cc1ccccc1)C(=O)O (H-NRVYT(Me)HPF-OH)
Activity [4]: 118%

Compound: CNCC(=O)N[C@@H](CCCN=C(N)N)C(=O)N[C@H](C(=O)N[C@@H](Cc1ccc(O)cc1)C(=O)N1CSC(C)(C)[C@@H]1C(=O)N[C@@H](Cc1c[nH]cn1)C(=O)N1CCC[C@H]1C(=O)N[C@@H](Cc1ccccc1)C(=O)O)C(C)C (H-[Sar]RVY[dThz(5,5-Me2)]HPF-OH)
BP [2]: 100 mmHg

pA2 [9]: 9
Compound: CC[C@H](C)[C@H](NC(=O)[C@@H]1CCCN1C(=O)[C@H](Cc1c[nH]cn1)NC(=O)[C@@H](NC(=O)[C@H](Cc1ccc(O)cc1)NC(=O)[C@@H](NC(=O)[C@H](CCCN=C(N)N)NC(=O)CNC)C(C)C)C(C)(C)SC)C(=O)O (H-[Sar]RVY[Pen](Me)HPI-OH)
ID50 [3]: 20 ng min-1 rat-1 | BP [6]: 12.5 mmHg

pA2 [9]: 9
Compound: CC[C@H](C)[C@H](NC(=O)[C@@H]1CCCN1C(=O)[C@H](Cc1c[nH]cn1)NC(=O)[C@H](CCC(=O)O)NC(=O)[C@H](Cc1ccc(O)cc1)NC(=O)[C@@H](NC(=O)[C@H](CCCN=C(N)N)NC(=O)CNC)C(C)C)C(=O)O
ID50 [3]: 100 ng min-1 rat-1 | BP [6]: 2 mmHg
